From publication PMC10609854 (Pharmaceuticals, 2023)

Columns and labels:
[1] = target: T1, human kappa opioid receptor (Homo sapiens, UniProt P41145); assay: radioligand binding, human opioid kappa receptor ([3H]U69593, RBL cells)
T1 construct: host or cells: RBL cells

in vivo = conditions: mouse
Procedure: The compound was administered at a dose of 5 mg/kg i.v. and at two doses (5 and 15 mg/kg) i.p. Before the dose (time 0) and up to 8 h at different time points following compound administration, three to five mice per time point were exsanguinated while under light ketamine/xylazine anesthesia. Blood and brains were harvested to the last measured point, whereas liver, kidneys, and lungs were collected at 0.25, 0.5, and 1 h. Serum and tissues were stored at −80 °C until assayed.
Tissues (liver, kidney, brain, and lung) were homogenized with water in a 1:5 ratio (w/v). Prior to the extraction, 100 μL of the plasma samples or 500 μL of tissue homogenates containing calibrators or authentic samples were spiked with 10 μL of IS working solution in a snap-cap microcentrifuge tubes and vortexed (Reax top, Heidolph, Schwabach, Germany) for 15 s. The serum and tissue samples were then alkalized with, respectively, 20 μL or 50 μL of 4 M sodium hydroxide solution, mixed briefly on the vortex mixer, and extracted with 1 mL of ethyl acetate/hexane (30:70, v/v) mixture by mixing for 20 min on a shaker (VXR Vibrax, IKA, Staufen, Germany). Then samples were centrifuged (EBA 12 R, Hettich, Germany) at 8000 g for 15 min and the organic layer of each sample was transferred to a new snap-cap microcentrifuge tube containing 200 μL of a methanol/0.1 M sulfuric acid mixture (1:9, v/v). Subsequently the samples were vortexed (20 min) and centrifuged again (8000 g, 15 min). Finally, the organic layer was discarded and 10–50 μL of the acidic layer was transferred to the autosampler vials (4 °C).
The HPLC system (LaChrom Elite, Merck Hitachi) consisted of the following components: an L-2130 pump, an L-2200 autosampler with a 100 μL sample loop, an L-2350 oven, and an L-2485 fluorescence detector. Excitation and emission wavelengths were set to 260 nm and 330 nm, respectively. Analysis was performed at a temperature of 25 °C on a 250 mm × 4 mm LiChrospher 100 RP-18 column from Merck Millipore (Germany), filled with 5 μm particles, protected with LiChroCART precolumn (10 μm particle size). The mobile phase containing acetonitrile and 20 mM potassium dihydrogen phosphate buffer (pH 4.5) in a 7:3 (v/v) ratio was filtered through the 0.45 µm membrane filter (Supelco Inc., Mainz, Germany) before use and pumped at a flow rate of 1.5 mL/min. […] The method was validated for serum, brain, liver kidney, and lungs.
Both one- and two-compartment pharmacokinetic models were tested. Bioavailability was estimated as a model parameter (F). […] The maximum concentration (Cmax) and the time to reach peak concentration (tmax) were obtained directly from the concentration–time data. The terminal elimination rate constant (λz) was assessed using linear regression. Terminal half-life (t0.5λz) was calculated as ln2/λz. The area under the concentration–time curve from 0 to last measured point (AUC0–last) was calculated using the linear trapezoidal rule. Non-compartmental and model-dependent analyses were performed using Phoenix WinNonlin version 6.3 (Pharsight Corp., Mountain View, CA, USA). The final pharmacokinetic model was selected on the basis of visual inspection of the fitting, examination of residuals, parameter precision, Akaike Information Criteria, and Schwarz Criteria.

capsaicin-induced pain = assay: capsaicin test; type: in vivo; conditions: mice, all doses (10, 15 and 30 mg/kg i.p.)
Procedure: The mice received an intraperitoneal (i.p.) injection of either the test compound or a control solution. After 30 min, an intraplantar injection of 1.6 µg capsaicin in a 20 μL solution of 0.9% NaCl was administered to the right hind paw. Right after the capsaicin injection, the animals were individually placed into glass containers and observed for the subsequent 5 min. During this observation period, the time that each animal spent licking or biting the injected paw was recorded.

[2] = system: carrageenan-induced mechanical hyperalgesia; assay: carrageenan-induced mechanical hyperalgesia (Randall-Selitto); type: in vivo; conditions: rats, 3 h after carrageenan, vehicle 87.8%
Procedure: The acute, local inflammation and paw edema was induced by subplantar injection of 0.1 mL of 1% carrageenan (made in PBS) into the rat right hind paw. The paw volume was measured using the dislocation of the water column of the plethysmometer (Plethysmometr 7140, Ugo Basile) before and at 1, 2, and 3 h after subplantar injection of carrageenan.
Furthermore, to assess the heightened sensitivity to mechanical stimuli, we employed the pain pressure threshold test. This involved applying increasing pressure to the dorsal surface of the right hind paw using an automated gauge (Analgesy Meter 37215, Ugo Basile, Gemonio, Italy), following the method outlined by Randall and Selitto. The force’s intensity, measured in grams, was recorded when the paw was withdrawn (withdrawal threshold). For each animal, withdrawal thresholds were recorded both prior to the administration of carrageenan and three hours afterward. The results were expressed as a percentage of the initial reaction, with the nociceptive response before carrageenan administration considered as the baseline (100% response).

[3] = system: spontaneous locomotor activity; assay: spontaneous locomotor activity; type: in vivo; conditions: mice
Procedure: The mean number of light-beam crossings in the vehicle-treated animals was 1.51 ± 0.13 x 103, measured during the 30 min-long period of observation. The test compound at a dose of 30 mg/kg […]
effect [F(2,21) = 4.43, p < 0.05] (Figure S1).
Figure S1. […] The test compound or vehicle (1% solution of Tween 80) were administered 30 min intraperitoneally (i.p.) before the beginning of the test. The results are presented as bar plots showing the mean ± SEM. Statistical analysis: one-way ANOVA followed by Dunnett’s post hoc test, * p < 0.05, n = 8 mice per group.
time spent on the rotarod apparatus was 60 seconds for each control mouse. The same effect was observed in the E153- treated mice. […]
impaired the motor coordination of mice at any tested speed [F(2,15) = 0.41, p=0.67] (Figure S2). We

H3R = system: H3R; parameters: method as in PMID 28797771; conditions: read-out: IC50, cAMP accumulation assay (H3R antagonist potency); cited from earlier work
[4] = target: human histamine H4 receptor; conditions: read-out: Ki, human histamine H4 receptor; cited from earlier work

T1 sequence (P41145 whole entry): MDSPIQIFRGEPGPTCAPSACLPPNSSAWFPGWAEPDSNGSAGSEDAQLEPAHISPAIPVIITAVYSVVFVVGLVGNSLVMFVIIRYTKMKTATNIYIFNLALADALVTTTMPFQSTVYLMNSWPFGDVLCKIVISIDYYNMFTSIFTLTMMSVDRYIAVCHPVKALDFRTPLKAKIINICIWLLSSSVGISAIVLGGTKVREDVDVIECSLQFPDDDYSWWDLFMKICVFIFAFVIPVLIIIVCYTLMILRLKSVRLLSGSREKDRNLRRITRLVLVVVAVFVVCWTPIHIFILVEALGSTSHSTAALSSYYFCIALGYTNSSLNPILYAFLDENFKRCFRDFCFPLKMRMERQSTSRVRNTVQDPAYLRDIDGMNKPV

O=C(O)C(=O)O.c1ccc(-c2ccc(OCCCCCN3CCCCCC3)cc2)cc1 [Compound E153, 1-(5-(4-Phenylphenoxy)pentyl)azepane hydrogen oxalate]
inhibition at 1 µM [1]: 52% | Vc (volume of the central compartment) (in vivo): 6.39 L/kg | half-life (in vivo): 41.6 min | k12 (first-order distribution rate constant) (in vivo): 0.33 h⁻¹ | k21 (first-order distribution rate constant) (in vivo): 0.19 h⁻¹ | k el (in vivo): 0.000278 s⁻¹ | time of high (peak) concentrations in brain tissue (in vivo): 0.5 to 1 h | k01 (first-order absorption rate constant, ka) (in vivo; ip): 2.32 h⁻¹ | Kp (in vivo; ip, 5 mg/kg): 28.5 | brain t0.5λz (in vivo; ip, 5 mg/kg): 1.03 h | Kp (in vivo; ip, 15 mg/kg): 14.7 | brain Cmax (in vivo; ip, 15 mg/kg): 11,682.69 ng/g | brain t0.5λz (in vivo; ip, 15 mg/kg): 1.46 h | Kp (in vivo; iv, 5 mg/kg): 15.7 | Tmax (in vivo; iv, 5 mg/kg): 15 min | brain t0.5λz (in vivo; iv, 5 mg/kg): 0.90 h | highest concentration in liver (in vivo; iv, 5 mg/kg): 5.32 µg/g | highest concentration in lung tissue (in vivo; iv, 5 mg/kg): 43.13 µg/g | paw licking or biting behavior, capsaicin test (capsaicin-induced pain): significantly decreased | mechanical pain threshold, % of baseline ([2]; 15 mg/kg): 112.5% | mechanical pain threshold, % of baseline ([2]; 30 mg/kg): 111.8% | spontaneous locomotor activity (light-beam crossings, 30 min) ([3]; 15 mg/kg i.p.): no effect | spontaneous locomotor activity (light-beam crossings, 30 min) ([3]; 30 mg/kg i.p.): significantly altered | IC50 (H3R): 0.009 µM | Ki [4]: 22 µM
